{"source": "patent US20150023920A1", "about": "“NOVEL COMPOSITIONS AND METHODS FOR PREVENTING OR TREATING CANCER METASTASIS” (Drexel University, priority 2012, published 2015)", "key": {"[1]": {"tested_on": "PC3-ML bone-metastatic prostate cancer cells", "assay": "Animal model of metastasis, intracardiac inoculation of cancer cells", "assay_type": "in vivo, mouse", "conditions": "mice inoculated via systemic arterial circulation with shRNA-transduced PC3-ML cells, four weeks post-inoculation", "method": "Five week-old male immunocompromised mice (CBI 7-SCRF) were obtained from Taconic and housed in a germ-free barrier. At six weeks of age, mice were anesthetized with 100 mg/kg ketamine and 20 mg/kg xylazine and successively inoculated in the left cardiac ventricle with cancer cells (5×10^4 in 100 μl of serum-free DMEM/F12). Cell inoculation was performed using a 30-gauge needle connected to a 1 ml syringe. The delivery of the cell suspension in the systemic blood circulation was validated by the co-injection of blue-fluorescent 10 μm polystyrene beads (Invitrogen-Molecular Probes). Animals were randomly assigned to different experimental groups and sacrificed at specified time points following inoculation. Organs were harvested and prepared as described below and tissue sections inspected blindly for metastatic lesions. The homogeneous and numerically-consistent distribution of the beads in adrenal glands and lungs collected at necropsy and inspected by fluorescence microscopy were used as discrimination criteria for the inclusion of animals in the studies. […]\nBright-field and fluorescent images of skeletal metastases were acquired using an Olympus stereomicroscope coupled to an Olympus DT70 CCD color camera. Digital images were analyzed with ImageJ software and calibrated for measurement by obtaining a pixel to millimeter ratio. […]"}, "[2]": {"tested_on": "IL-1β in PC3-ML cells", "assay": "IL-1β silencing by stable shRNA transduction in PC3-ML cells (Western blot, ELISA)", "assay_type": "cell-based, human", "conditions": "stable transduction of shRNA", "method": "Mission TRC lentiviral shRNA vectors (Sigma-Aldrich) were used to knock down IL1-β. The following shRNA sequence was used:\nLentiviral particles were used to infect […] cell cultures, overnight in the presence of 8 μg/ml polybrene (Millipore). The successful infected cells were selected for the ability to proliferate in media containing G418 ([…]). The resulting cells were characterized by Western blot analysis using an antibody against IL1β.\n(§1) Cell lysates were obtained and SDS-PAGE and Western Blot analysis performed as previously described, with few modifications. Membranes were blotted with antibodies targeting PDGFRα, PDGFRβ, IL1-β (SC-7884, Santa Cruz, Dallas, Tex.), Actin (A-2066, Sigma-Aldrich, St. Louis, Mo.), COX-2 (ab15191, AbCam, Cambridge, UK) Elafin (SC-20637, Santa Cruz) and GAPDH (DI6H11, Cell Signaling Technology, Beverly, Mass.). Primary antibody binding was detected using an HRP-conjugated secondary antibody (Pierce). Chemiluminescence signals were obtained using SuperSignal West Femto reagents (Pierce) and detected with the Fluorochem 8900 imaging system and relative software (Alpha Innotech).\nThe concentrations of IL-1β and CXCL6 were measured by ELISA as described in the manufacturers' protocols. […] The supernatant was then collected and the protein concentration was measured using Quantikine kits (R&D systems)."}, "[3]": {"tested_on": "production of interleukin-1β", "conditions": "cited from earlier work"}, "[4]": {"tested_on": "COX-2 expression in human bone Mesenchymal Stem Cells (MSCs)", "assay": "COX-2 expression in human MSCs exposed to PC3-ML conditioned medium (Western blot)", "assay_type": "cell-based", "conditions": "Anakinra 10 μg/ml pre-treatment 30 minutes; MSCs exposed 48 hours to PC3-ML conditioned medium", "method": "Bone marrow-derived Human Mesenchymal Stem cells (MSCs) (Lonza, Allendale, N.J.) were used between passage 5 and 8 and cultured in MSC growth medium (α-MEM (Invitrogen) supplemented with 10% FBS, 1 ng/ml bFGF (R&D Systems, Minneapolis, Minn.), and 0.1% gentamicin).\nas §1\nConditioned media were obtained according to Li et al., 2012, Cancer Disc. 2:840-55. In brief, 7.5×10^5 PC3-ML cells were plated in 15 ml of DMEM supplemented with 10% fetal bovine serum and 0.1% gentamicin and cultured for five days. The medium from each dish was then collected and centrifuged at 2000 rpm for 10 minutes and then used fresh as described below. […]"}, "[5]": {"tested_on": "other members of the interleukin-1 family, including interleukin-1 alpha", "conditions": "cited from earlier work"}, "[6]": {"tested_on": "mouse models of acute gout", "conditions": "in vivo; cited from earlier work"}}, "note": "Entries after “also recorded” stand apart in the source; their conditions may differ.", "data": [{"molecule": "5′-CGGCCAGGATATAACTGACTT-3′ (listed as DNA, chemistry not given here) [shRNA, Mission TRC lentiviral shRNA used to knock down IL1-β in PC3-ML cells]", "values": [{"measurement": "reduction of size of bone-metastatic tumors", "setting": "[1]", "result": "approximately 70%"}, {"measurement": "IL-1β expression in PC3-ML cells after silencing", "setting": "[2]", "result": "expression levels lower than PC3-N cells"}]}, {"molecule": "CSc1ccc(-c2nn(Cc3ccccc3)c(=O)cc2-c2ccc(Cl)cc2)cc1", "note": "[K-832, 2-benzyl-5-(4-chlorophenyl)-6-[4-(methylthio)phenyl]-2H-pyridazin-3-one]", "values": [{"measurement": "inhibitory activity against production of interleukin-1β", "setting": "[3]", "result": "high inhibitory activity"}]}, {"molecule": "Anakinra: recombinant, non-glycosylated version of human IL-1 receptor antagonist prepared from genetically modified E. coli", "values": [{"measurement": "Increase in COX-2 expression in MSCs induced by PC3-ML conditioned medium", "setting": "[4]", "result": "completely prevent; also recorded: inhibited"}]}, {"molecule": "Canakinumab: human monoclonal antibody targeted at interleukin-1 beta", "values": [{"measurement": "cross-reactivity with other members of the interleukin-1 family, including interleukin-1 alpha", "setting": "[5]", "result": "no cross-reactivity"}]}, {"molecule": "XOMA-052: potent anti-IL-1β humanized neutralizing antibody", "values": [{"measurement": "activity in mouse models of acute gout", "setting": "[6]", "result": "active"}]}]}
